Laboratory results taken from ChEMBL document CHEMBL1201862, “PubChem BioAssay data set” (2004).
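Protocol summary: plate cells (96-well), add compound at 5 concentrations, incubate 48 h, interpolate endpoints linearly. Here, GI50 denotes the concentration required for 50% inhibition of growth.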 Activity calls are given as the source filed them. Cut-off read from the data, not from the text of the source: active = GI50 up to about 1.1 µM and inactive = higher.

What was measured:
Test in all cases: growth of human tumour cells (NCI), 48 h
SNB-75 = tested on: SNB-75
HCT-15 = tested on: HCT-15
HOP-92 = tested on: HOP-92
OVCAR-8 = tested on: OVCAR-8
A549 = tested on: A549
DU-145 = tested on: DU-145
OVCAR-5 = tested on: OVCAR-5
UO-31 = tested on: UO-31
SK-MEL-5 = tested on: SK-MEL-5
CCRF-CEM = tested on: CCRF-CEM
HCT-116 = tested on: HCT-116
SK-MEL-28 = tested on: SK-MEL-28
SR = tested on: SR
PC-3 = tested on: PC-3
MDA-MB-435 = tested on: MDA-MB-435
NCI/ADR-RES = tested on: NCI/ADR-RES
SF-268 = tested on: SF-268
SW-620 = tested on: SW-620
NCI-H226 = tested on: NCI-H226

Compound	GI50 (SNB-75)	GI50 (HCT-15) [µM]	GI50 (HOP-92)	GI50 (OVCAR-8)	GI50 (A549)	GI50 (DU-145)	GI50 (OVCAR-5)	GI50 (UO-31)	GI50 (SK-MEL-5)	GI50 (CCRF-CEM)	GI50 (HCT-116)	GI50 (SK-MEL-28)	GI50 (SR)	GI50 (PC-3)	GI50 (MDA-MB-435)	GI50 (NCI/ADR-RES)	GI50 (SF-268)	GI50 (SW-620)	GI50 (NCI-H226)
Cc1noc(C)c1/N=N/c1ccc2nonc2c1N	15.1 µM (inactive)	> 100	87.7 µM (inactive)	> 100 µM (inactive)	> 100 µM (inactive)	> 100 µM (inactive)	> 100 µM (inactive)	21 µM (inactive)	> 100 µM (inactive)	> 100 µM (inactive)	> 100 µM (inactive)	> 100 µM (inactive)	> 100 µM (inactive)	> 100 µM (inactive)	> 100 µM (inactive)	> 100 µM (inactive)	> 100 µM (inactive)	> 100 µM (inactive)	–
O=C(O)c1cc(O)nc(SCc2ccccc2)n1	> 100 µM (inactive)	> 100	> 100 µM (inactive)	> 100 µM (inactive)	> 100 µM (inactive)	> 100 µM (inactive)	> 100 µM (inactive)	> 100 µM (inactive)	> 100 µM (inactive)	–	> 100 µM (inactive)	> 100 µM (inactive)	> 100 µM (inactive)	> 100 µM (inactive)	> 100 µM (inactive)	> 100 µM (inactive)	> 100 µM (inactive)	> 100 µM (inactive)	> 100 µM (inactive)
Cc1nc(C)c(C(=O)Nc2cccc3c2C(=O)NC3=O)cc1C(=O)Nc1cccc2c1C(=O)NC2=O	> 100 µM (inactive)	> 100	> 100 µM (inactive)	> 100 µM (inactive)	> 100 µM (inactive)	–	> 100 µM (inactive)	> 100 µM (inactive)	> 100 µM (inactive)	> 100 µM (inactive)	> 100 µM (inactive)	> 100 µM (inactive)	> 100 µM (inactive)	–	–	–	> 100 µM (inactive)	> 100 µM (inactive)	> 100 µM (inactive)
OCC1OC(n2nc(-c3ccccc3)nc2-c2cnccn2)C(O)C1O (stereo not drawn)	> 100 µM (inactive)	> 100	> 100 µM (inactive)	> 100 µM (inactive)	> 100 µM (inactive)	> 100 µM (inactive)	> 100 µM (inactive)	> 100 µM (inactive)	> 100 µM (inactive)	> 100 µM (inactive)	> 100 µM (inactive)	> 100 µM (inactive)	–	> 100 µM (inactive)	> 100 µM (inactive)	> 100 µM (inactive)	> 100 µM (inactive)	> 100 µM (inactive)	–
CCOc1ccc(NC(=O)CCc2nnc(SC)o2)cc1	> 100 µM (inactive)	> 100	82 µM (inactive)	> 100 µM (inactive)	> 100 µM (inactive)	–	> 100 µM (inactive)	> 100 µM (inactive)	> 100 µM (inactive)	> 100 µM (inactive)	> 100 µM (inactive)	> 100 µM (inactive)	> 100 µM (inactive)	–	–	–	> 100 µM (inactive)	> 100 µM (inactive)	> 100 µM (inactive)
CCSC1=CC(Cc2ccc(OC)cc2)N(C(=O)OC)C1 (stereo not drawn)	> 100 µM (inactive)	40.7	55.2 µM (inactive)	> 100 µM (inactive)	> 100 µM (inactive)	–	> 100 µM (inactive)	> 100 µM (inactive)	49.4 µM (inactive)	49.7 µM (inactive)	52.2 µM (inactive)	> 100 µM (inactive)	26.3 µM (inactive)	–	–	–	> 100 µM (inactive)	25.2 µM (inactive)	> 100 µM (inactive)
S=c1sc2c(S)nc(S)nc2n1-c1ccccc1	69.8 µM (inactive)	> 100	42.4 µM (inactive)	> 100 µM (inactive)	> 100 µM (inactive)	–	> 100 µM (inactive)	> 100 µM (inactive)	> 100 µM (inactive)	80.2 µM (inactive)	> 100 µM (inactive)	> 100 µM (inactive)	> 100 µM (inactive)	–	–	–	> 100 µM (inactive)	> 100 µM (inactive)	> 100 µM (inactive)
